Patent US5208344A, “Naphthalenepropionic acid derivatives as anti-inflammatory/antiallergic agents” (American Home Products Corporation, priority 1991, dated 1993)
Where a name gives a salt, the structure may show the parent alone.

Key:
[1] = system: acute gastroirritation induced by naproxen; experiment: cytoprotective activity against NSAID (naproxen)-induced acute gastroirritation in rats; assay type: in vivo, rat; conditions: drug 100 mg/kg peroral 1 hour before naproxen 25 mg/kg
Description: The assay of Example 44 is also used to measure the cytoprotective activity of the compounds against acute gastroirritation induced by a nonsteroidal anti-inflammatory drug (NSAID).

5-lipoxygenase = biological target: T1, 5-lipoxygenase (Rattus norvegicus, UniProt P12527); experiment: inhibition of 5-HETE synthesis by rat glycogen elicited polymorphonuclear leukocytes; assay type: cell-based; conditions: 10 μM, rat PMN, negative = potentiation of 5-HETE synthesis; for inhibition at 10 µM: read-out: % Inhibition of 5-LO (as 5-HETE)
T1 construct: Peritoneal PMN are obtained from female Wistar rats (150-250 g); endogenous in cells; host or cells: rat glycogen-elicited peritoneal polymorphonuclear leukocytes, intact
T1 sequence (P12527 1-673): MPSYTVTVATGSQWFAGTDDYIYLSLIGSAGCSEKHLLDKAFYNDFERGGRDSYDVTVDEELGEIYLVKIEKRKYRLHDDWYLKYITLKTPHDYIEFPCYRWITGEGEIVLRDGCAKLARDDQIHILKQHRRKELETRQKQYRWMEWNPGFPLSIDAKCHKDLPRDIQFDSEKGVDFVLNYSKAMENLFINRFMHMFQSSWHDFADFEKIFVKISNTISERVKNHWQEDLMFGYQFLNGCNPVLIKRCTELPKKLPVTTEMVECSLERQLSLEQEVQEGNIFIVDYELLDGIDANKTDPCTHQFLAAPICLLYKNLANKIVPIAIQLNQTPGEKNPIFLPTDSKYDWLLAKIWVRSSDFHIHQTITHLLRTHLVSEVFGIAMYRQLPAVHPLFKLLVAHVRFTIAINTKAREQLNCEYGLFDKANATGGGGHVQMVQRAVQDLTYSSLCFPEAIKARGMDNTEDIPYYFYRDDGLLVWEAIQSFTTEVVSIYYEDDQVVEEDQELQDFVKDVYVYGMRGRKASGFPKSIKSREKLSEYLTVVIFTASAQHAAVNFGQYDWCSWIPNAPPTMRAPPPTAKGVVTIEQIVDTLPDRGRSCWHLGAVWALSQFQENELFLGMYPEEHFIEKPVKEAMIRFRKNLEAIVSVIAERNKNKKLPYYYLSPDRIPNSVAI
Summary of the method: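 Peritoneal PMN from female Wistar rats given i.p. glycogen 24 h earlier were preincubated with compound for 10 min at 37° C (2×10^7 cells/ml, 10 mM L-cysteine). They were then stimulated 10 min with 10 μM A23187 plus 0.5 μM [14C]arachidonic acid. 5-HETE was separated by TLC and quantified by scintillation.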

[2] = system: ovalbumin-induced bronchoconstriction; experiment: inhibition of antigen (ovalbumin)-induced bronchoconstriction in anesthetized guinea pigs; assay type: in vivo; conditions: orally administered 4 hours before induction, guinea pig, 240 min
Procedure: The compounds of the invention are tested to measure their in vivo ability to inhibit the bronchoconstriction induced in anesthetized guinea pigs by exogenously administered antigen.
Male Hartley guinea pigs (400-700 gm) are sensitized three weeks prior to antigen (ovalbumin-OA) challenge as follows: each guinea pig is given two intramuscular injections--0.35 ml of Grade V OA, 50 mg/ml, into each hindlimb.
Guinea pigs, fasted overnight but allowed water adlibitum, are anesthetized with 1.2 g/kg of urethane (intraperitoneal). Supplemental does of […] of urethane are administered intraperitoneally as needed. One carotid artery and one jugular vein are cannulated to allow for the monitoring of blood pressure and the administration of drugs, respectively. A duodenal cannula is inserted for intraduodenal dosing studies. The trachea of each animal is cannulated and connected to a Harvard respirator. […] Respiratory overflow pressure is measured from a side arm off the tracheal cannula which is connected via a Gould or Beckman pressure transducer to a suitable strip chart recorder. […]
Test compounds are administered intravenously, perorally, or intraduodenally at appropriate times prior to OA challenge. […] Control experiments are used to determine the effects of solvents on the measured parameters, and test data is corrected for any significant solvent effects.
Bronchoconstriction is assessed as increases in respiratory overflow pressure (cm H2 O). Changes in blood pressure (mm Hg) are also recorded.
Test compound-induced changes in the respiratory overflow pressure are assessed as percent changes from control experiments. […] The net change in overflow pressure is measured 5 minutes after antigen challenge and is calculated as follows. […] The percent change value for the drug treated group versus the control group is calculated as follows: […]

cyclooxygenase = experiment: inhibition of synthesis of cyclooxygenase products TxB2 and PGE2 (rat polymorphonuclear leukocytes); assay type: cell-based; conditions: 10 μM, rat PMN; for % Inhibition of CO (as PGE2): negative = potentiation of PGE2 synthesis
Summary of the method: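 Glycogen-elicited peritoneal PMN from female Wistar rats, 2×10^7 cells/ml in HBSS with Ca^++, Mg^++ and 10 mM L-cysteine, preincubated with compound 10 min at 37° C. Stimulated 10 min with A23187 (10 μM) plus 0.5 μM [14C] arachidonic acid; TxB2 and PGE2 quantified by TLC, autoradiography and scintillation counting.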

LTD4 = biological target: T2, LTD4 (Cavia porcellus, UniProt Q2NNR5); experiment: inhibition of LTD4-induced bronchospasm in guinea pigs; assay type: in vivo; conditions: 25 mg/kg intraduodenally, 10 minutes before LTD4; guinea pig
T2 construct: isolated guinea pig trachea; from tissue; host or cells: guinea pig tracheal rings
T2 sequence (Q2NNR5 1-340): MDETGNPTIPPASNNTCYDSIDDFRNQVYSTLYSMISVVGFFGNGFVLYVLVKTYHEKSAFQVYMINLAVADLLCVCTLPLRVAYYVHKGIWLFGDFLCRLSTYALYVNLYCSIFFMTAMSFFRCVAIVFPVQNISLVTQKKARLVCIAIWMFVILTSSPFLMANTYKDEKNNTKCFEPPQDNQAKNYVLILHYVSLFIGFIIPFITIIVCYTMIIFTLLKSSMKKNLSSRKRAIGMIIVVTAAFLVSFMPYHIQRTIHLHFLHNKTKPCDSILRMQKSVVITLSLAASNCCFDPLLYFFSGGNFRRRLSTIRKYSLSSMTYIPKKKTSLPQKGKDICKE
Procedure: The assay of this Example measures the in vivo ability of the compounds of the invention to inhibit the bronchospasm induced in guinea pigs by the exogenously administered leukotrienes C4 and/or D4.
Male Hartley strain guinea pigs (350-600 g) are anesthetized with pentobarbital sodium (50 mg/kg, i.p.). The jugular vein is cannulated for injection of drugs and the carotid artery for monitoring blood pressure. The trachea is cannulated for artificial ventilation by a miniature Starling pump and for indirect measurement of respiratory volume changes. The animals are then pretreated with succinylcholine (2 mg/kg i.v.) and indomethacin (10 mg/kg i.v.) in trizma 8.3 buffer, 9 minutes prior to leukotriene challenge. Submaximal bronchoconstrictor responses are established in control animals by varying the dose-levels of leukotriene. Intravenous dose-levels for LTC4 range from 0.4 to 0.6 μg/kg and for LTD4 the range is from 0.3 to 0.5 μg/kg. The aerosol bronchoprovocation dose for LTC4 is generated from 1.6 μM solution and for LTD4 from a 2.0 μM solution.
Test drugs (dissolved in a solvent such as propylene glycol, polyethylene glycol 400 or saline) are administered either intraduodenally, by aerosol or intragastrically at 2 or 10 minutes before induction of bronchospasm by administration of either LTC4 or LTD4 at the predetermined dose-levels. Aerosols of soluble drugs or leukotrienes are produced in-line for 10 seconds only by actuation of an ultrasonic nebulizer (Monaghan). Aerosolized drug dosage is expressed in terms of solution concentration and by a fixed aerosol exposure time (approximately 10 seconds). Control animals receive solvent (2 ml/kg i.d. or appropriate aerosol) in place of drug.
Respiratory volume changes are determined by a calibrated piston whose travel is recorded, via a linear transducer, on a Beckman Dynograph recorder. Maximal bronchoconstrictor volume is determined by clamping off the trachea at the end of the experiment. Overflow volumes at 1,3 and 5 minutes are obtained from the recorded charts.
Area under the volume overflow curve (AUC) is estimated, using the overflow values at 1,3 and 5 minutes, and expressed as a percentage of the maximal overflow AUC (equation 1): [formula] Drug effects are reported as percent inhibition of % max AUC values obtained from appropriate control animals (equation 2): [formula]
Student's t-test for unpaired data is used to determine statistical signifiance (p<0.05). IC50 values can also be determined by inverse prediction from linear regression liens through points between 10 and 90% inhibition.

carrageenan paw edema = experiment: rat carrageenan paw edema assay; assay type: in vivo; conditions: 50 mg/kg peroral, 1 hour prior to carrageenan; rat
Procedure: The compounds of the invention are further tested in the rat carrageenan paw edema assay to determine their ability to inhibit the acute inflammatory response.
140-180 gm male Sprague-Dawley rats, in groups of 6 animals are injected subcutaneously in the right paw with 0.1 ml of 1% carrageenan at zero time. Mercury plethysmographic readings (ml) of the paw are made at zero time and 3 hours later. Test compounds are suspended or dissolved in 0.5% methylcellulose and given perorally 1 hour prior to carrageenan administration.
The increase in paw volume (edema in ml.) produced by the carrageenan is measured. […] Unpaired Student's t-test is used to determine statistical significance.

inhibition at 10 µM (5-lipoxygenase) [%] | % Inhibition (LTD4-induced bronchospasm) (LTD4) [%] | % Inhibition of 5-LO (as 5-HETE) (5-lipoxygenase; sodium salt) [%] | SMILES | % of Rats With Lesions [1] [%] | Comments (protection) [1] | ED50 (ovalbumin-induced bronchoconstriction) [2] [mg/kg] | % Inhibition of CO (as PGE2) (cyclooxygenase) [%] | % Inhibition of CO (as TxB2) (cyclooxygenase) [%] | % Inhibition at 50 mg/kg (peroral) (carrageenan paw edema) [%] | ED50 (ovalbumin-induced bronchoconstriction) ([2]; sodium salt) [mg/kg] | % Inhibition of CO (as PGE2) (cyclooxygenase; sodium salt) [%]
100 | – | – | C[C@H](C(=O)O)c1ccc2cc(OCc3ccc4ccccc4n3)ccc2c1 [Example 7, S-(α)-α-Methyl-6-(2-quinolinylmethoxy)-2-naphthaleneacetic acid] | 87.5 | no protection | 100 | -17 | – | – | – | –
82 | 52 | – | CC(C(=O)O)c1ccc2cc(OCc3ccccn3)ccc2c1 (stereo not drawn) [Example 4, α-Methyl-6-(2-pyridinylmethoxy)-2-naphthaleneacetic acid] | – | – | – | 18 | 12 | 30 | – | –
84 | -76 | – | CC(C(=O)O)c1ccc2cc(OCc3ccccc3)ccc2c1 (stereo not drawn) [Example 2, α-Methyl-6-(phenylmethoxy)-2-naphthaleneacetic acid] | – | – | – | -26 | 6 | 24 | – | –
– | – | 100 | C[C@H](C(=O)O)c1ccc2cc(OCc3ccc4ccccc4n3)ccc2c1 [Example 16, S-(+)-α-Methyl-6-(2-quinolinylmethoxy)-2-naphthaleneacetic acid, sodium salt] | – | – | – | – | – | – | 15 | -13
